Key:
Tumor Cell line [1] = experiment: Tested for in vitro cytotoxicity of 60 human tumor cell lines in National Cancer Institute (NCI); assay type: functional
Tumor Cell line [2] = experiment: Tested for in vitro cytotoxicity of 60 human tumor cell lines in National Cancer Institute (NCI) and the value was expressed as LC50; assay type: functional; settings: read-out: LC50 (the source's name)

SMILES | GI50 (Tumor Cell line [1]) [µM] | TGI (Tumor Cell line [1]) [µM] | CC50 (Tumor Cell line [2]) [µM]
C=C(Cl)[C@](Cl)(CBr)CCC(Cl)=C(C)C | 0.741 | 3.39 | 17
C=C(Cl)[C@](Cl)(CBr)CC[C@H](Cl)C(C)(C)Br | 1.32 | 4.47 | 16.2
CC1(C)[C@H](Cl)C=C/C(=C\CCl)[C@@H]1Cl | 20 | 47.9 | > 100
CC1(C)C(Cl)CC(Br)/C(=C\CCl)C1Cl (stereo unspecified) | 1.15 | 4.68 | 20
C=C[C@](Cl)(CBr)CC[C@@H](Br)C(C)(C)Cl | 26.1 | 77 | > 100
C=CC1=CCC(Br)C(C)(C)C1Cl (stereo unspecified) | > 100 | > 100 | > 100
C=CC(Cl)(CBr)CCC=C(C)C (stereo unspecified) | 33.1 | > 100 | > 100
C=C(Cl)[C@](Cl)(CBr)CCC=C(C)C | 47 | > 100 | > 100
CC1(C)C(Br)=C(C(Cl)CBr)CCC1Br (stereo unspecified) | 21.9 | 45.7 | 93.3
C=C(Cl)/C(=C\Br)CCC=C(C)C | 19.5 | 44.7 | > 100
C=C(Cl)[C@](Cl)(CBr)CCC(Br)=C(C)C | 0.691 | 3.02 | 13.5
C=C(Cl)[C@](Cl)(CBr)CC[C@@H](Br)C(C)(C)Cl [HALOMON] | 0.676 | 3.02 | 11.5
